Measurements from the CheMixHub viscosity set.
Values joined by “and” are separate entries in the source; they are usually repeats but may differ in a detail not shown here. Identical values can stand only once.

Assay: xn = mol fraction of the nth substance listed

BrC(Br)Br + ClCCCCCl
viscosity [mPa·s], 101 kPa
Settings	x1 = 0.0978	x1 = 0.197	x1 = 0.2974	x1 = 0.3963	x1 = 0.496	x1 = 0.5975	x1 = 0.6963	x1 = 0.7994	x1 = 0.8972
298.15 K	1.382	1.455	1.538	1.607	1.677	1.748	1.813	1.868	1.924
303.15 K	1.278	1.346	1.423	1.489	1.556	1.624	1.686	1.743	1.803
308.15 K	1.184	1.247	1.32	1.381	1.446	1.507	1.573	1.625	1.687
313.15 K	1.099	1.158	1.232	1.281	1.34	1.401	1.462	1.52	1.578

BrC(Br)Br + N#CCc1ccccc1
298.15 K, 101 kPa
Settings	viscosity [mPa·s]
x1 = 0.1271	1.937
x1 = 0.2393	2
x1 = 0.3546	2.087
x1 = 0.5011	2.112
x1 = 0.601	2.117
x1 = 0.6932	2.08
x1 = 0.7999	2.027
x1 = 0.889	1.966

BrC(Br)Br + N#Cc1ccccc1
298.15 K, 101 kPa
Settings	viscosity [mPa·s]
x1 = 0.1782	1.372
x1 = 0.3333	1.548
x1 = 0.4937	1.727
x1 = 0.6066	1.861
x1 = 0.7005	1.88
x1 = 0.8886	1.893

CC(C)(C)N + NC1CCCCC1
298.15 K, 101 kPa
Settings	viscosity [mPa·s]
x2 = 0.0757	0.569
x2 = 0.1557	0.7445
x2 = 0.2401	0.9554
x2 = 0.3296	1.173
x2 = 0.4244	1.407
x2 = 0.5252	1.612
x2 = 0.6324	1.785
x2 = 0.7468	1.894
x2 = 0.8691	1.915

CCCCCCCCO + NCCO
viscosity [mPa·s], 101.3 kPa
Settings	x2 = 0.1	x2 = 0.2	x2 = 0.3	x2 = 0.4	x2 = 0.5	x2 = 0.6	x2 = 0.7	x2 = 0.8	x2 = 0.9
303.15 K	6.48	6.8	7.36	8.14	9.01	9.97	11	12.1	13.4
313.15 K	4.68	4.93	5.28	5.77	6.27	6.83	7.48	8.16	8.98
323.15 K	3.49	3.68	3.92	4.23	4.55	4.9	5.34	5.79	6.29

BrC(Br)Br + Nc1ccccc1
298.15 K, 101 kPa
Settings	viscosity [mPa·s]
x1 = 0.1402	3.373
x1 = 0.2067	3.235
x1 = 0.3151	3.026
x1 = 0.4133	2.856
x1 = 0.5137	2.657
x1 = 0.614	2.486
x1 = 0.701	2.349
x1 = 0.808	2.196

BrC(Br)Br + Nc1ccccc1Cl
viscosity [mPa·s], 101 kPa
Settings	x1 = 0.1006	x1 = 0.1969	x1 = 0.3023	x1 = 0.3984	x1 = 0.5023	x1 = 0.5997	x1 = 0.6951	x1 = 0.8013	x1 = 0.8983
298.15 K	2.948	2.901	2.784	2.699	2.585	2.453	2.342	2.208	2.096
303.15 K	2.693	2.616	2.509	2.425	2.326	2.244	2.15	2.045	1.955
308.15 K	2.378	2.33	2.267	2.197	2.122	2.065	1.981	1.896	1.82
313.15 K	2.122	2.102	2.062	1.995	1.96	1.896	1.831	1.764	1.697

C[C@@H](O)[C@H](N)C(=O)O + O
101 kPa
Settings	viscosity [mPa·s]
293.15 K, x1 = 0.001804	1.036
293.15 K, x1 = 0.0107	1.226
298.15 K, x1 = 8.95e-05	0.9002
298.15 K, x1 = 0.0001801	0.9048
298.15 K, x1 = 0.001819	0.9278
298.15 K, x1 = 0.003526	0.9547
298.15 K, x1 = 0.005296	0.9865
298.15 K, x1 = 0.007341	1.02
298.15 K, x1 = 0.008519	1.047
298.15 K, x1 = 0.01104	1.075
298.15 K, x1 = 0.01269	1.105
298.15 K, x1 = 0.01399	1.136
303.15 K, x1 = 0.007153	0.904
303.15 K, x1 = 0.01245	0.9968
305.15 K, x1 = 0.00036	0.788
305.15 K, x1 = 0.0007203	0.7937
305.15 K, x1 = 0.00108	0.7998
305.15 K, x1 = 0.001439	0.8055
305.15 K, x1 = 0.001798	0.8106
305.15 K, x1 = 0.002157	0.8163
308.15 K, x1 = 8.95e-05	0.7885
308.15 K, x1 = 0.0001801	0.7945
308.15 K, x1 = 0.001819	0.8025
308.15 K, x1 = 0.003526	0.8241
308.15 K, x1 = 0.005296	0.8417
308.15 K, x1 = 0.007341	0.8612
308.15 K, x1 = 0.008519	0.8741
308.15 K, x1 = 0.01104	0.9001
308.15 K, x1 = 0.01269	0.9289
308.15 K, x1 = 0.01399	0.9456
310.15 K, x1 = 0.00036	0.707
310.15 K, x1 = 0.0007203	0.7122
310.15 K, x1 = 0.00108	0.7174
310.15 K, x1 = 0.001439	0.7223
310.15 K, x1 = 0.001798	0.7263
310.15 K, x1 = 0.002157	0.7313
313.15 K, x1 = 0.008929	0.758
313.15 K, x1 = 0.0107	0.7828
313.15 K, x1 = 0.01245	0.8054
315.15 K, x1 = 0.00036	0.6527
315.15 K, x1 = 0.0007203	0.6576
315.15 K, x1 = 0.00108	0.6612
315.15 K, x1 = 0.001439	0.6656
315.15 K, x1 = 0.001798	0.6694
315.15 K, x1 = 0.002157	0.6737
318.15 K, x1 = 8.95e-05	0.6814
318.15 K, x1 = 0.0001801	0.6945
318.15 K, x1 = 0.001819	0.7042
318.15 K, x1 = 0.003526	0.7214
318.15 K, x1 = 0.005296	0.7356
318.15 K, x1 = 0.007341	0.7565
318.15 K, x1 = 0.008519	0.7645
318.15 K, x1 = 0.01104	0.7898
318.15 K, x1 = 0.01269	0.8045
318.15 K, x1 = 0.01399	0.8214
323.15 K, x1 = 0.00359	0.5782
323.15 K, x1 = 0.007153	0.6118

NCCOCCO + O
viscosity [mPa·s], 101.33 kPa
Settings	298.15 K	313.15 K	323.15 K
x1 = 0.0552	2.4	1.452	1.16
x1 = 0.1002	3.874	2.419	1.857
x1 = 0.1447	6.344	3.715	2.737
x1 = 0.2249	11.4	6.182	4.438
x1 = 0.2997	16.21	8.343	5.773
x1 = 0.3995	21.35	10.7	7.293
x1 = 0.5392	25.2	12.28	8.273
x1 = 0.6075	26.8	13.19	8.903
x1 = 0.7021	27.72	13.65	9.182
x1 = 0.8071	27.7	13.76	9.315
x1 = 0.9024	27.4	13.65	9.257

O=C([O-])CC(O)(CC(=O)[O-])C(=O)[O-].[NH4+].[NH4+].[NH4+] + O
viscosity, 101 kPa
Settings	298.15 K	308.15 K	318.15 K
x1 = 0.004	0.9957 mPa·s	0.814 mPa·s	0.685 mPa·s
x1 = 0.007	1.13 mPa·s	0.923 mPa·s	0.7741 mPa·s
x1 = 0.01	1.283 mPa·s and 1.49 mPa·s	1.048 mPa·s and 1.211 mPa·s	0.8784 mPa·s and 1.01 mPa·s

O=S(=O)([O-])c1ccccc1.[Na+] + O
viscosity [mPa·s], 101 kPa
Settings	x1 = 9e-05	x1 = 0.00018	x1 = 0.0009	x1 = 0.0018	x1 = 0.00448	x1 = 0.00893	x1 = 0.0133	x1 = 0.0177
298.15 K	0.898	0.899	0.915	0.932	0.98	1.073	1.17	1.273
318.15 K	0.598	0.599	0.609	0.619	0.648	0.705	0.762	0.825

O=[N+]([O-])[O-].O=[N+]([O-])[O-].[Cd+2] + O
viscosity [mPa·s], 101.3 kPa
Settings	x1 = 0.0009	x1 = 0.0018	x1 = 0.00893	x1 = 0.0177	x1 = 0.02631	x1 = 0.03478	x1 = 0.05127	x1 = 0.06722	x1 = 0.08263
293.15 K	1.02	1.036	1.166	1.363	1.607	1.912	2.746	3.964	5.664
298.15 K	0.9069	0.9215	1.041	1.219	1.437	1.708	2.443	3.496	4.949
303.15 K	0.8129	0.8263	0.936	1.097	1.293	1.537	2.189	3.11	4.364
308.15 K	0.7336	0.7459	0.8471	0.994	1.171	1.391	1.975	2.789	3.882
313.15 K	0.6664	0.678	0.7712	0.9059	1.067	1.267	1.792	2.521	3.48
318.15 K	0.6085	0.6193	0.7057	0.8296	0.977	1.16	1.637	2.288	3.143
323.15 K	0.5582	0.568	0.6484	0.7627	0.8979	1.066	1.502	2.093	2.855

[Cl-].[Rb+] + O
310.15 K, 101 kPa
Settings	viscosity [mPa·s]
x1 = 0.000184	0.6947
x1 = 0.000842	0.6943
x1 = 0.002695	0.6937
x1 = 0.003302	0.6937
x1 = 0.003679	0.6938
x1 = 0.005197	0.6944
x1 = 0.005988	0.695
